The assay deals with T1, human RXFP1 (Homo sapiens, UniProt Q9HBX9).
T1 sequence (Q9HBX9 1-757): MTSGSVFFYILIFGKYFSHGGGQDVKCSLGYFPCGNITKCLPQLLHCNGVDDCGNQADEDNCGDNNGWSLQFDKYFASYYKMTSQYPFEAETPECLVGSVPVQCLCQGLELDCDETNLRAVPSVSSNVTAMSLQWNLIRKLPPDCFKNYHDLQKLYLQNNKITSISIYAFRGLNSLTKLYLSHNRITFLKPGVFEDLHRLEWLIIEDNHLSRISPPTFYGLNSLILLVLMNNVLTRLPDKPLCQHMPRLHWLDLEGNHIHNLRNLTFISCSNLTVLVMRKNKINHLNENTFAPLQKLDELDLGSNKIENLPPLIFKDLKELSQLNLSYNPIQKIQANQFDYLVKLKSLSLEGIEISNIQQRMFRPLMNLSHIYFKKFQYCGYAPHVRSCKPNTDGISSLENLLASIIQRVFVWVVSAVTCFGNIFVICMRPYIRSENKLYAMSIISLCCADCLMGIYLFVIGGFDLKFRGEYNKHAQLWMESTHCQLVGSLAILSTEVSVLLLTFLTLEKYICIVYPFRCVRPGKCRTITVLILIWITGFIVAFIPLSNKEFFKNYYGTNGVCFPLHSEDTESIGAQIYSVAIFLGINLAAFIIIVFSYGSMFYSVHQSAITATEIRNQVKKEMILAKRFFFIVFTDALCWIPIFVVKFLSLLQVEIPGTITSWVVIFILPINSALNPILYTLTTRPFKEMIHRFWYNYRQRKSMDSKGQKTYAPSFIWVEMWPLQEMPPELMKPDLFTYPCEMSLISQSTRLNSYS
Description: RXFP1 Hu cAMP (Test A). The class given is cell-based. More on the design: expressed in transfected cells; host or cells: Jump-In T-REx CHO-K1 cells (ThermoFisher), induced with 10 ng/ml doxycycline for 24 h. Conditions: RXFP1 Hu cAMP; for EC50: read-out: Test A EC50. The method in brief:
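Read-out is HTRF signal, inversely proportional to cAMP, converted to cAMP amount by standard curve. Stimulation occurred in inducible CHO-K1 cells expressing the human receptor with phosphodiesterases blocked by 0.5 mM IBMX.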

One may read the EC50 as the concentration that produces a half-maximal response.

As to `COc1cc(F)c(O[C@H]2CC[C@@](O)(C(=O)O)CC2)cc1C(=O)N[C@@H]1[C@H]2CC[C@H](C2)[C@@H]1C(=O)NCC1(C)CCC1` [Example 507, (1R,4r)-4-(2-Fluoro-4-methoxy-5-(((1S,2R,3S,4R)-3-(((1-methylcyclobutyl)methyl)carbamoyl)bicyclo[2.2.1]heptan-2-yl)carbamoyl)phenoxy)-1-hydroxycyclohexane-1-carboxylic acid], the “Test A Sinf” value is 118% and the concentration giving a half-maximal response (EC50) came to 0.54 µM.
As for `COc1cc(F)c(O[C@H]2CC[C@@](C)(C(=O)O)CC2)cc1C(=O)N[C@@H]1[C@H]2CC[C@H](C2)[C@@H]1C(=O)NCCC(F)(F)F` [Example 596], the “Test A Sinf” value is 105%.
In the case of `COc1cc(C#N)c(O[C@H]2CC[C@@](C)(C(=O)O)CC2)cc1C(=O)Nc1cc(C)ccc1C(=O)N[C@H]1C[C@@H](C)C1` [Example 171], the “Test A Sinf” value was determined as 119% and the EC50 was found to be 0.44 µM.
Taken in the same sequence, the figures for `COc1cc(F)c(O[C@H]2CC[C@@](C)(C(=O)O)CC2)cc1C(=O)N[C@@H]1[C@H]2CC[C@H](C2)[C@@H]1C(=O)NCC1(F)CCC1` [Example 609] were 108% and 0.4 µM.
With `Cn1ncc2cc(C(=O)N[C@@H]3[C@H]4CC[C@H](C4)[C@@H]3C(=O)NCC3(C)CCC3)cc(O[C@H]3CC[C@@](C)(C(=O)O)CC3)c21` [Example 378], the EC50 is greater than 2.5 µM.
The same measure, in the same setting: under `COc1cc(F)c(O[C@H]2C[C@@H]3[C@H](C2)[C@H]3C(=O)O)cc1C(=O)N[C@@H]1[C@H]2CC[C@H](C2)[C@@H]1C(=O)NCC1(C)CCC1` (racemic) [Example 426, (1RS,3SR,5SR,6RS)-3-(2-Fluoro-4-methoxy-5-(((1S,2R,3S,4R)-3-(((1-methylcyclobutyl)methyl)carbamoyl)bicyclo[2.2.1]heptan-2-yl)carbamoyl)phenoxy)bicyclo[3.1.0]hexane-6-carboxylic acid] stands greater than 40 µM.
For `COc1cc(F)c(O[C@H]2CC[C@@](C)(C(=O)O)CC2)cc1C(=O)N[C@@H]1[C@@H]2CC[C@@H](C2)[C@@H]1C(=O)Nc1cccc(S(=O)(=O)C(F)(F)F)c1` (racemic) [Example 367], the “Test A Sinf” value was determined as 110% and the EC50 is 0.0032 µM.
The corresponding values for `COc1cc(C#N)c(O[C@H]2CC[C@@](C)(C(=O)O)CC2)cc1C(=O)N[C@@H]1[C@H]2CC[C@H](C2)[C@@H]1C(=O)NCc1cc(C)ccc1C` [Example 136] are 102% and 0.029 µM.
Taken in the same sequence, the figures for `COc1cc(F)c(O[C@H]2CC[C@@](C)(C(=O)O)CC2)cc1C(=O)N[C@@H]1COCC[C@@H]1C(=O)Nc1ccc(F)c(S(F)(F)(F)(F)F)c1` (racemic) [Example 349] were 113% and 1.8 µM.
Consider `COc1cc(F)c(O[C@H]2CC[C@@](CO)(C(=O)O)CC2)cc1C(=O)NC1COCC1C(=O)NCC1(C)CCC1` (single isomer, unassigned) [Example 580, (1R,4s)-4-(2-Fluoro-4-methoxy-5-(((3S*,4R*)-4-(((1-methylcyclobutyl)methyl)carbamoyl)tetrahydrofuran-3-yl)carbamoyl)phenoxy)-1-(hydroxymethyl)cyclohexane-1-carboxylic acid], for which the EC50 was greater than 40 µM.
With `COc1cc(C#N)c(O[C@H]2CC[C@@](C)(C(=O)O)CC2)cc1C(=O)N[C@@H]1CC[C@@H]1C(=O)NCC1(C)CCC1` (racemic) [Example 348], the “Test A Sinf” value was 101% and the EC50 was determined as 0.56 µM.
For the compound `O=C(O)c1ccc(-c2cc(C(=O)N[C@H]3[C@@H](C(=O)Nc4cccc(S(=O)(=O)C(F)(F)F)c4)[C@@H]4C=C[C@H]3C4)ccc2F)cc1` (racemic) [Example 305, rac-2′-Fluoro-5′-(((1R,2R,3S,4S)-3-((3-((trifluoromethyl)sulfonyl)phenyl)carbamoyl)bicyclo[2.2.1]hept-5-en-2-yl)carbamoyl)-[1,1′-biphenyl]-4-carboxylic acid], the EC50 is greater than 40 µM.

The values are drawn from patent publication US11667602B2, “Compounds and their use” (AstraZeneca AB, priority 2020, dated 2023).
